Measured values: US20060035901A1, “Methotrexate derivatives useful for treating cancer and arthritis” (Serenex, Inc., priority 2004, published 2006)

Assays:
[1] = target: T1, pyruvate carboxylase (PYC) (Sus scrofa, UniProt A0A8W4F6F0); assay: Elution of PYC from ATP-Sepharose column loaded with porcine liver proteome, IC50 estimate; assay type: binding; settings: estimated from percent of protein eluted from ATP-Sepharose column, read-out: Approximate IC50 for PYC
T1 construct: a porcine liver proteome was run over an ATP-Sepharose™ column; from tissue; host or cells: porcine liver
T1 sequence (A0A8W4F6F0 1-1157): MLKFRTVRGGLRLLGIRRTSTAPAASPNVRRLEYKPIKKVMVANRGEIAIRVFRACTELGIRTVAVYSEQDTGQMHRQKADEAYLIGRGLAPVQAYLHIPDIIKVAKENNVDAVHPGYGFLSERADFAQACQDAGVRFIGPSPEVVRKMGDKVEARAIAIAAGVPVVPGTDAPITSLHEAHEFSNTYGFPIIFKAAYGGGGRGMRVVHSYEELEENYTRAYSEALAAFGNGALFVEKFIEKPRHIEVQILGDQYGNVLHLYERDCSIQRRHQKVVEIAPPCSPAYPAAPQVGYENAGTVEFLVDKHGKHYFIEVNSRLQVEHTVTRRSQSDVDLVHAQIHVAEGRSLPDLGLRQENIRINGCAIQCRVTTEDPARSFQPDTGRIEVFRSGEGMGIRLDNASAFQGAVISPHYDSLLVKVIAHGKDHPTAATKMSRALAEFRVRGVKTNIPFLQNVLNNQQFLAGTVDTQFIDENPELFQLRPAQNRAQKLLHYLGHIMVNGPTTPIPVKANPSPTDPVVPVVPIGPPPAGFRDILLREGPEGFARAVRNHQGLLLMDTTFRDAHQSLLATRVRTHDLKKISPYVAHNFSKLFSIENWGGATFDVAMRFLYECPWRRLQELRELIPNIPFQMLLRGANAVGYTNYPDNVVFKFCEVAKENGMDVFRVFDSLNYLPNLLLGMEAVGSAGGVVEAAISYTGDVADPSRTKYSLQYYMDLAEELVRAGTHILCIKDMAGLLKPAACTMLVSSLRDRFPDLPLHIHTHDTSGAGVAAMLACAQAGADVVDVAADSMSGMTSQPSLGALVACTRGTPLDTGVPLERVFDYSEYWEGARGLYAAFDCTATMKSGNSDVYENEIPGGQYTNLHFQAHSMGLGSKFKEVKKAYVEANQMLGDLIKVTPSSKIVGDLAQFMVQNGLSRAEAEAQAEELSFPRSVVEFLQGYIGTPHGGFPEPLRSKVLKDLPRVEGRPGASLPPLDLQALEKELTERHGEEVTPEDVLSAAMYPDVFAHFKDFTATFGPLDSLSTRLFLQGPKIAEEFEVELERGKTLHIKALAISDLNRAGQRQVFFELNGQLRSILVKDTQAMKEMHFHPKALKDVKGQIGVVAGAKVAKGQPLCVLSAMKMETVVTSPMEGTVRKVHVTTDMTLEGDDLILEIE
Method: Similar experiments were carried out to compare the IC50 values for PYC, PCCA, and PCCB. In these trials, a porcine liver proteome was run over an ATP-Sepharose™ column to bind all purine-binding proteins. The ATP-Sepharose™ column was washed several times, and then eluted with the compound of Formula III at concentrations of 1 μM, 5 μM, 10 μM, 50 μM, 100 μM, and 500 μM to identify proteins that bound to this compound. (The amount of protein eluted at the higher concentration ranges plateaued, thus confirming that the entire fraction of bound protein had been eluted.) The eluted fractions were run on a 1-dimensional SDS polyacrylamide gel.
(§1) Gels were stained with a fluorescent stain such as sypro ruby (a highly sensitive fluorescent protein stain that can readily detect less than 1 fmol of total protein, i.e., less than 0.04 ng for a 40 kDa protein). The gels were imaged using a standard flat bed gel imager and the amount of protein estimated by densiometry. The percent of protein eluted from the column at each concentration was determined and IC50 values were calculated from these estimates. Where necessary, the eluted proteins were cut out of the gel, and identified using mass spectral techniques.
These steps were repeated with each of the compounds of Formulas IV-X, MTX, and the c series derivative. The values obtained were then compared to those for DHFR.

[2] = target: T2, propionyl-CoA carboxylase subunit beta (PCCB) (Sus scrofa, UniProt P79384); assay: Elution of PCCB from ATP-Sepharose column loaded with porcine liver proteome, IC50 estimate; assay type: binding; settings: estimated from percent of protein eluted from ATP-Sepharose column, read-out: Approximate IC50 for PCCB
T2 construct: a porcine liver proteome was run over an ATP-Sepharose™ column; from tissue; host or cells: porcine liver
T2 sequence (P79384 29-539): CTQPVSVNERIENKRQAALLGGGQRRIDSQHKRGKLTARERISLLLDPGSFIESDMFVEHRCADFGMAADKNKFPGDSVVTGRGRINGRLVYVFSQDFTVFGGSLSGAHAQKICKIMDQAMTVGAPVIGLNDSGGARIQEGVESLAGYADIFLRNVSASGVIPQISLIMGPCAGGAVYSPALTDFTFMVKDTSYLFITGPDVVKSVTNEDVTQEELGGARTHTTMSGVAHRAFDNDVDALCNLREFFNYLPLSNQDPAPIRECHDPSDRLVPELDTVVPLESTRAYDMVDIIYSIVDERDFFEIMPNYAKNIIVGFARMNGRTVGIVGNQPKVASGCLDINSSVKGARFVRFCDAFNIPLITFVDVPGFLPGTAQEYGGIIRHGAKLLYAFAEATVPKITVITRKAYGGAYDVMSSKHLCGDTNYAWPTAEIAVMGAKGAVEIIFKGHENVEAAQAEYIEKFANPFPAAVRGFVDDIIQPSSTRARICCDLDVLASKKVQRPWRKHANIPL
T2 sequence (P0DTA4 53-730 partner): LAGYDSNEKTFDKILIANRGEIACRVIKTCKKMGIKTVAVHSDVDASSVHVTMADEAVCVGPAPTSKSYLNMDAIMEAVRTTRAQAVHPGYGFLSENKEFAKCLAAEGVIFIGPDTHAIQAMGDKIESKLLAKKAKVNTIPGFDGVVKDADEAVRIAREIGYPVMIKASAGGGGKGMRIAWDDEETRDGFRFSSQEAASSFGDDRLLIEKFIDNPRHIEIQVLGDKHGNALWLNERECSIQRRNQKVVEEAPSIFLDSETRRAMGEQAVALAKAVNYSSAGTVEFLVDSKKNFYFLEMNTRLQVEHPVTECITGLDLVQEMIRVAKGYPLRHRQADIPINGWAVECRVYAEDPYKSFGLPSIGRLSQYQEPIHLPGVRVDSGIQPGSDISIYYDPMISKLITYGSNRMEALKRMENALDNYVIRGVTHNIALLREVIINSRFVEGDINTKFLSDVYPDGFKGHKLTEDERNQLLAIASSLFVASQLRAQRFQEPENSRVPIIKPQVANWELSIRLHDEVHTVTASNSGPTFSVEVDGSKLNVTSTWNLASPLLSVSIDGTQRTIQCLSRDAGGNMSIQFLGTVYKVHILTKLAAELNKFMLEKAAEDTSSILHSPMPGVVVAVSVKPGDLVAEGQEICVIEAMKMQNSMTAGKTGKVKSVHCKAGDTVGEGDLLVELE
Method: (§2) Similar experiments were carried out to compare the IC50 values for PYC, PCCA, and PCCB. In these trials, a porcine liver proteome was run over an ATP-Sepharose™ column to bind all purine-binding proteins. The ATP-Sepharose™ column was washed several times, and then eluted with the compound of Formula III at concentrations of 1 μM, 5 μM, 10 μM, 50 μM, 100 μM, and 500 μM to identify proteins that bound to this compound.
as §1
(§3) The values obtained were then compared to those for DHFR.

[3] = target: T3, DHFR (Homo sapiens, UniProt P00374); assay: DHFR enzymatic assay; assay type: biochemical; settings: determined by enzymatic assay
T3 sequence (P00374 1-187): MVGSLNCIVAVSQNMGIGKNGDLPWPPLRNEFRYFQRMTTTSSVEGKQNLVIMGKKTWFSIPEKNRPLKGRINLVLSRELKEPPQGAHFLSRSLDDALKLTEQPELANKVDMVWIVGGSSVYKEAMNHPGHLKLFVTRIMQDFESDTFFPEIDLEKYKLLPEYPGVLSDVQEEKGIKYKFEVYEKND

[4] = target: T4, propionyl-CoA carboxylase subunit alpha (PCCA) (Sus scrofa, UniProt P0DTA4); assay: Elution of PCCA from ATP-Sepharose column loaded with porcine liver proteome, IC50 estimate; assay type: binding; settings: estimated from percent of protein eluted from ATP-Sepharose column, read-out: Approximate IC50 for PCCA
T4 construct: a porcine liver proteome was run over an ATP-Sepharose™ column; from tissue; host or cells: porcine liver
T4 sequence (P0DTA4 53-730): T2 sequence (P0DTA4 53-730 partner)
T4 sequence (P79384 29-539 partner): T2 sequence (P79384 29-539)
Method: as §2, §1, §3

[5] = target: Her2 (Homo sapiens, UniProt P04626); assay: Elution of Her2 from ATP-Sepharose column by compound (Proteome Mining), IC50 estimate; assay type: binding; settings: estimated from percent of protein eluted from ATP-Sepharose column, gel densitometry; read-out: Approximate IC50 for Her2
Method: as §1, with “A proteome containing a known quantity of Her2, EGFR, and B-Raf was run over an ATP-Sepharose™ column in order to bind all purine-binding proteins. […] The ATP-Sepharose™ was washed several times, and then eluted with the compound of Formula III. The experiment was run in duplicate at concentrations of 20 μM, 100 μM, and 500 μM of the compound of Formula III. The eluted fractions were run on a 1-dimensional SDS polyacrylamide gel. Gels” for “Gels”

[6] = target: B-Raf (Homo sapiens, UniProt P15056); assay: Elution of B-Raf from ATP-Sepharose column by compound (Proteome Mining), IC50 estimate; assay type: binding; settings: estimated from percent of protein eluted from ATP-Sepharose column, gel densitometry; read-out: Approximate IC50 for B-Raf
Method: (§4) A proteome containing a known quantity of Her2, EGFR, and B-Raf was run over an ATP-Sepharose™ column in order to bind all purine-binding proteins. See, WO 00/63694 and U.S. Provisional Application No. 60/453,697 filed Jan. 22, 2003, each of which is incorporated by reference in its entirety. The ATP-Sepharose™ was washed several times, and then eluted with the compound of Formula III. The experiment was run in duplicate at concentrations of 20 μM, 100 μM, and 500 μM of the compound of Formula III. The eluted fractions were run on a 1-dimensional SDS polyacrylamide gel. Gels were stained with a fluorescent stain such as sypro ruby (a highly sensitive fluorescent protein stain that can readily detect less than 1 fmol of total protein, i.e., less than 0.04 ng for a 40 kDa protein). The gels were imaged using a standard flat bed gel imager and the amount of protein estimated by densiometry. The percent of protein eluted from the column at each concentration was determined and IC50 values were calculated from these estimates. Where necessary, the eluted proteins were cut out of the gel, and identified using mass spectral techniques.
(§5) These steps were repeated with each of the compounds of Formulas IV-X, MTX, and the c series derivative.

[7] = target: EGFR (Homo sapiens, UniProt P00533); assay: Elution of EGFR from ATP-Sepharose column by compound (Proteome Mining), IC50 estimate; assay type: binding; settings: estimated from percent of protein eluted from ATP-Sepharose column, gel densitometry; read-out: Approximate IC50 for EGFR
Method: as §4, §5

EGFR, sequence (P00533 25-1210, species assumed): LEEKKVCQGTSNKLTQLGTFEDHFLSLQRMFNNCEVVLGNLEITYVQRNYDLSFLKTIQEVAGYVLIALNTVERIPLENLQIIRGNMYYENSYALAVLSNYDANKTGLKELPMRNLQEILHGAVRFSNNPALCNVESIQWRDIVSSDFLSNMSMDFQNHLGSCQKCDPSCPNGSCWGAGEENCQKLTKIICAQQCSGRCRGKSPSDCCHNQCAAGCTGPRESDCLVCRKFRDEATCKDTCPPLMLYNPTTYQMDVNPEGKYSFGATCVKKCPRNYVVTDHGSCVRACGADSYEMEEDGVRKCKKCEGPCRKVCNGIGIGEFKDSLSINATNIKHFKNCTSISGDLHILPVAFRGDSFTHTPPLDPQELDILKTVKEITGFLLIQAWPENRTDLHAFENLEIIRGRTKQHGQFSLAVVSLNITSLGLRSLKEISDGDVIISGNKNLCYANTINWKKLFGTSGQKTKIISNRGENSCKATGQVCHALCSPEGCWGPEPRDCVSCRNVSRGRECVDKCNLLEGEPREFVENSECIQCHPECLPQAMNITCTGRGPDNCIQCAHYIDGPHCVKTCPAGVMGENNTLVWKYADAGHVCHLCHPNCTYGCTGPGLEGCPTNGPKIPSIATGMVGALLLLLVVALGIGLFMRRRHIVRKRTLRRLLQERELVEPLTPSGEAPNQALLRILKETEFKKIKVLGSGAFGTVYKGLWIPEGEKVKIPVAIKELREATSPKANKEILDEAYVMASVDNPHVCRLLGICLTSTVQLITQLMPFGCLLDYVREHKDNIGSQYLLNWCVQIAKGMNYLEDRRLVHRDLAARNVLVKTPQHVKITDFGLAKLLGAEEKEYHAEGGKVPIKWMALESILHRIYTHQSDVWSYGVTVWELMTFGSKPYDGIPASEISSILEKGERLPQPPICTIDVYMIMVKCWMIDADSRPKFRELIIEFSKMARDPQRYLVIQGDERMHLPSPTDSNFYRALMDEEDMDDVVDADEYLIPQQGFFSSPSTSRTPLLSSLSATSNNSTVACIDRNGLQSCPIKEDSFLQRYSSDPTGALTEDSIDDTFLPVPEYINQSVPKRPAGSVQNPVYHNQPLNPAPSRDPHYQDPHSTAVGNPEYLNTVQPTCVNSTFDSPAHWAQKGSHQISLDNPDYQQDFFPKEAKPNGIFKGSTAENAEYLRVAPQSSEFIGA
B-Raf, sequence (P15056 whole entry, species assumed): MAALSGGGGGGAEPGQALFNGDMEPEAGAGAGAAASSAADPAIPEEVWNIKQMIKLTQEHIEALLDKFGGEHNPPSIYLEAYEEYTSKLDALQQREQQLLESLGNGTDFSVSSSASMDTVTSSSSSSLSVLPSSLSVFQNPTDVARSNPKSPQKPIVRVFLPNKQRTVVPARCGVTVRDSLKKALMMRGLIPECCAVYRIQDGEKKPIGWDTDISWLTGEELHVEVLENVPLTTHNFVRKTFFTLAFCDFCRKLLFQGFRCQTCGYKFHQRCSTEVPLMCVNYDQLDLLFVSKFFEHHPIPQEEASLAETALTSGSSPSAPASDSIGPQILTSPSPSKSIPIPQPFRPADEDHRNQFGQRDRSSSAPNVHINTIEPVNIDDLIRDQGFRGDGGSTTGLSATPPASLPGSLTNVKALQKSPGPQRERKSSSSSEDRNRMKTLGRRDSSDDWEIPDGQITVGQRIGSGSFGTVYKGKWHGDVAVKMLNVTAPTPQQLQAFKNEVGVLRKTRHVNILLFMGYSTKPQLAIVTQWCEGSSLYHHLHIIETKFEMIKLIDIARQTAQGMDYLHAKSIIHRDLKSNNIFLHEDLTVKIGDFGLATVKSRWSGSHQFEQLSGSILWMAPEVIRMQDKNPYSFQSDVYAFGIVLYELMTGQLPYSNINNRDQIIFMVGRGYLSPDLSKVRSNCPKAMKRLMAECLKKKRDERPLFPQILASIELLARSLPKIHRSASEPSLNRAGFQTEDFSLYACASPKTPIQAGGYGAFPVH
Her2, sequence (P04626 23-1255, species assumed): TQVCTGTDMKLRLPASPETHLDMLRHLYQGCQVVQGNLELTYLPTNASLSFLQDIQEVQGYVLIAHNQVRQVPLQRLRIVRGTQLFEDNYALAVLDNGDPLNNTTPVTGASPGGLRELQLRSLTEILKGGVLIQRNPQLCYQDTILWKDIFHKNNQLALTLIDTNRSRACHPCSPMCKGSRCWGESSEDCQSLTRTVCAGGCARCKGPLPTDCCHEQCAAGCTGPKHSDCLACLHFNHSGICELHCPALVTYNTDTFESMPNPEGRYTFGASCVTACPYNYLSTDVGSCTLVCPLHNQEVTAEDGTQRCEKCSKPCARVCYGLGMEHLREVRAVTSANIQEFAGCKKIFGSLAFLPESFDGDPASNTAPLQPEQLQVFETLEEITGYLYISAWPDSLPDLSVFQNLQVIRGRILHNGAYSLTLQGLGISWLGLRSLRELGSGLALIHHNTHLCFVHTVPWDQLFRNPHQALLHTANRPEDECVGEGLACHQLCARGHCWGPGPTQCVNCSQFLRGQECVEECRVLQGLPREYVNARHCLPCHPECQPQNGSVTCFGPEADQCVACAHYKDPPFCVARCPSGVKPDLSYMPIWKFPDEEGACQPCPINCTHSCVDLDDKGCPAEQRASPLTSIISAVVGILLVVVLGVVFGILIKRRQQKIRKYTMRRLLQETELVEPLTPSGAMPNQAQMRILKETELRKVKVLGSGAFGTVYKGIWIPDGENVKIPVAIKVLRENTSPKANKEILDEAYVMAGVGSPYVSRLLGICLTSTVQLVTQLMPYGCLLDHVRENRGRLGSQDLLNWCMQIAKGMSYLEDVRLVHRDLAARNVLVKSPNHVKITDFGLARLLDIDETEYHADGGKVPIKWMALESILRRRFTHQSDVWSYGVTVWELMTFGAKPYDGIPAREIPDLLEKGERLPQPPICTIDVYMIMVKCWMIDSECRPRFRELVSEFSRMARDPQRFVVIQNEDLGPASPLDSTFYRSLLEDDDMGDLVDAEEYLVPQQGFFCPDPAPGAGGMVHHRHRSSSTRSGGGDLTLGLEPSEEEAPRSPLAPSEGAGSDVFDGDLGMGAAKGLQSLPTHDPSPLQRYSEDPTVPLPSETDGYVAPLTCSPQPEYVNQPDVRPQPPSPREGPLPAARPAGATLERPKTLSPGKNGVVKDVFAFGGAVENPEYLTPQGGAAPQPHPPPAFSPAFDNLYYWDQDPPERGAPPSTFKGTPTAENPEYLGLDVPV

IC50 [1] [µM]	IC50 [2] [µM]	IC50 [3] [µM]	IC50 [4] [µM]	IC50 [5] [µM]	IC50 [6] [µM]	IC50 [7] [µM]	Structure (SMILES)
4.35	4	0.016	2.5	–	–	–	CC(C)(C)CN(Cc1cnc2nc(N)nc(N)c2n1)c1ccc(C(=O)NC(CCC(=O)O)C(=O)O)cc1 (stereo not drawn) [Formula X]
5	10	0.017	6	–	–	–	Cc1cc(C(=O)NC(CCC(=O)O)C(=O)O)ccc1N(Cc1cnc2nc(N)nc(N)c2n1)CC(C)(C)C (stereo not drawn) [Formula IV]
4	3.5	–	2	5	–	–	Cc1cc(C(=O)NC(CCC(=O)O)C(=O)O)ccc1N(Cc1cnc2nc(N)nc(N)c2n1)CC1CC1 (stereo not drawn) [Formula V]
0.35	–	–	–	–	≥ 10	> 15	CN(Cc1cnc2nc(N)nc(N)c2n1)c1ccc(C(=O)N[C@@H](CCC(=O)O)C(=O)O)cc1 [MTX, N-[4-[[(2,4-diamino-6-pteridinyl)methyl]methylamino]benzoyl]-L-glutamic acid, reference compound]
0.5	1	–	1	–	–	–	CC(C)=CCN(Cc1cnc2nc(N)nc(N)c2n1)c1ccc(C(=O)NC(CCC(=O)O)C(=O)O)cc1C (stereo not drawn) [Formula VI]
